Measurements reported in patent US20200347043A1, “MODULATORS OF THE INTEGRATED STRESS PATHWAY” (Calico Life Sciences LLC, priority 2019, published 2020).

System: HEK293T cells carrying the ATF4 luciferase reporter
Assay: ATF4-Luc assay (in vitro model of VWMD)
Format: cell-based, human
Settings: Homo sapiens, HEK-293T, 1 μg/mL tunicamycin, 7 hours, One Glo luminescence
Procedure, shortened: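 Tunicamycin (1 μg/mL) stress with co-added compound for 7 hours in HEK293T cells stably carrying an ATF4 5′-UTR–luciferase reporter. EC50 values come from the luminescent signal (One Glo).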

SMILES	EC50 [nM]
O=C(CO[C@H]1C[C@@H](OC(F)(F)F)C1)N[C@@H]1C[C@@H]2C[C@H]1C[C@H]2NC(=O)[C@H]1C[C@@H](O)c2cc(Cl)ccc2O1 (relative stereo) [Compound 211, (2R,4R)-6-chloro-4-hydroxy-N-[(1S*,2R*,4S*,5R*)-5-(2-{[cis-3-(trifluoromethoxy)cyclobutyl]oxy}acetamido)bicyclo[2.2.1]heptan-2-yl]-3,4-dihydro-2H-1-benzopyran-2-carboxamide]	< 10
O=C(NC12CC(c3cc(-c4ccc(Cl)cc4)on3)(C1)C2)[C@@H]1C[C@@H](O)c2cc(Cl)ccc2O1 [Compound 257, (2S,4R)-6-chloro-N-{3-[5-(4-chlorophenyl)-1,2-oxazol-3-yl]bicyclo[1.1.1]pentan-1-yl}-4-hydroxy-3,4-dihydro-2H-1-benzopyran-2-carboxamide]	50 to 250
O=C1C[C@H](C(=O)N[C@H]2CC[C@H](C(=O)N3CC(c4ccc(Cl)cc4)C3)CC2)Oc2ccc(Cl)cc21 [Compound 173, (2R)-6-chloro-N-{trans-4-[3-(4-chlorophenyl)azetidine-1-carbonyl]cyclohexyl}-4-oxo-3,4-dihydro-2H-1-benzopyran-2-carboxamide]	10 to 50
O=C(NC12CC(c3cc([C@H]4C[C@@H](OC(F)(F)F)C4)on3)(C1)C2)[C@H]1C[C@@H](O)c2cc(Cl)ccc2O1 [Compound 234, (2R,4R)-6-chloro-4-hydroxy-N-{3-(5-[cis-3-(trifluoromethoxy)cyclobutyl]-1,2-oxazol-3-yl}bicyclo[1.1.1]pentan-1-yl)-3,4-dihydro-2H-1-benzopyran-2-carboxamide]	10 to 50
O=C(NC12CC(c3cc(-c4ccc(Cl)c(F)c4)no3)(C1)C2)[C@H]1C[C@@H](O)c2cc(Cl)ccc2O1 [Compound 248, (2R,4R)-6-chloro-N-{3-[3-(4-chloro-3-fluorophenyl)-1,2-oxazol-5-yl]bicyclo[1.1.1]pentan-1-yl}-4-hydroxy-3,4-dihydro-2H-1-benzopyran-2-carboxamide]	10 to 50
O=C(NC12CC(N3CC(c4ccc(Cl)cc4)OC3=O)(C1)C2)[C@@H]1C[C@@H](O)c2cc(Cl)ccc2O1 (stereo partly drawn) [Compound 278, (2S,4R)-6-chloro-N-{3-[5-(4-chlorophenyl)-2-oxo-1,3-oxazolidin-3-yl]bicyclo[1.1.1]pentan-1-yl}-4-hydroxy-3,4-dihydro-2H-1-benzopyran-2-carboxamide]	500 to 2000
O=C(NC12CC(n3cnc(-c4ccc(Cl)c(F)c4)c3)(C1)C2)[C@H]1C[C@@H](O)c2cc(Cl)ccc2O1 [Compound 282, (2R,4R)-6-chloro-N-{3-[4-(4-chloro-3-fluorophenyl)-1H-imidazol-1-yl]bicyclo[1.1.1]pentan-1-yl}-4-hydroxy-3,4-dihydro-2H-1-benzopyran-2-carboxamide]	< 10
O=C(CO[C@H]1C[C@@H](OC(F)(F)F)C1)NC12CC(NC(=O)[C@@H]3C[C@@H](O)c4cc(Cl)ccc4O3)(C1)C2 [Compound 208, (2S,4R)-6-chloro-4-hydroxy-N-[3-(2-{[cis-3-(trifluoromethoxy)cyclobutyl]oxy}acetamido)bicyclo[1.1.1]pentan-1-yl]-3,4-dihydro-2H-1-benzopyran-2-carboxamide]	< 10
O=C(NC12CC(c3ncc(-c4ccc(Cl)c(F)c4)o3)(C1)C2)[C@@H]1C[C@@H](O)c2cc(Cl)ccc2O1 [Compound 271, (2S,4R)-6-chloro-N-{3-[5-(4-chloro-3-fluorophenyl)-1,3-oxazol-2-yl]bicyclo[1.1.1]pentan-1-yl}-4-hydroxy-3,4-dihydro-2H-1-benzopyran-2-carboxamide]	10 to 50
O=C(COc1ccc(Cl)c(F)c1)N[C@H]1CC[C@H](NC(=O)C2CC(=O)c3cc(Cl)ccc3O2)CC1 (stereo partly drawn) [Compound 130, 6-chloro-N-{(1r,4r)-4-[2-(4-chloro-3-fluorophenoxy)acetamido]cyclohexyl}-4-oxo-3,4-dihydro-2H-1-benzopyran-2-carboxamide]	250 to 500
O=C(NC1CC2(C1)CN(C(=O)COc1ccc(Cl)c(F)c1)C2)[C@H]1C[C@@H](O)c2cc(Cl)ccc2O1 [Compound 143, (2R,4R)-6-chloro-N-{2-[(4-chloro-3-fluorophenoxy)acetyl]-2-azaspiro[3.3]heptan-6-yl}-4-hydroxy-3,4-dihydro-2H-1-benzopyran-2-carboxamide]	50 to 250
O=C1C[C@@H](C(=O)N[C@@H]2CC[C@@H](c3nnc([C@H]4C[C@@H](OC(F)(F)F)C4)o3)OC2)Oc2ccc(Cl)cc21 [Compound 177, (2S)-6-chloro-4-oxo-N-[(3R,6S)-6-{5-[cis-3-(trifluoromethoxy)cyclobutyl]-1,3,4-oxadiazol-2-yl}oxan-3-yl]-3,4-dihydro-2H-1-benzopyran-2-carboxamide]	50 to 250
O=C(CO[C@H]1C[C@@H](OC(F)(F)F)C1)NC12CCC(NC(=O)[C@@H]3C[C@@H](O)c4cc(Cl)ccc4O3)(CC1)C[C@@H]2O (single isomer, unassigned) [Compound 279]	< 10
O=C(NCc1ccc(C(F)(F)F)cn1)[C@H]1C[C@H]2O[C@@H]1C[C@@H]2NC(=O)[C@H]1C[C@@H](O)c2cc(Cl)ccc2O1 (mixture of isomers) [Compound 313, (2R,4R)-6-chloro-4-hydroxy-N-[(1RS,2SR,4RS,5SR)-5-({[5-(trifluoromethyl)pyridin-2-yl]methyl}carbamoyl)-7-oxabicyclo[2.2.1]heptan-2-yl]-3,4-dihydro-2H-1-benzopyran-2-carboxamide]	250 to 500
O=C(NCc1cn2ccc(Cl)cc2n1)[C@@H]1CC[C@@H](NC(=O)[C@@H]2C[C@H](O)c3cc(Cl)ccc3O2)CO1 (racemic) [Compound 131, (2S,4S)-6-chloro-N-[(3R,6S)-6-{[(7-chloroimidazo[1,2-a]pyridin-2-yl)methyl]carbamoyl}oxan-3-yl]-4-hydroxy-3,4-dihydro-2H-1-benzopyran-2-carboxamide and (2R,4R)-6-chloro-N-[(3R,6S)-6-{[(7-chloroimidazo[1,2-a]pyridin-2-yl)methyl]carbamoyl}oxan-3-yl]-4-hydroxy-3,4-dihydro-2H-1-benzopyran-2-carboxamide]	50 to 250
O=C(NC12CC(n3cnc(-c4ccc(C(F)(F)F)nc4)c3)(C1)C2)[C@@H]1C[C@@H](O)c2cc(Cl)ccc2O1 [Compound 231, (2S,4R)-6-chloro-4-hydroxy-N-(3-{4-[6-(trifluoromethyl)pyridin-3-yl]-1H-imidazol-1-yl}bicyclo[1.1.1]pentan-1-yl)-3,4-dihydro-2H-1-benzopyran-2-carboxamide]	10 to 50
O=C(NC12CC(n3cc(-c4ccc(Cl)cc4)cn3)(C1)C2)[C@H]1C[C@@H](O)c2cc(Cl)ccc2O1 [Compound 212, (2R,4R)-6-chloro-N-{3-[4-(4-chlorophenyl)-1H-pyrazol-1-yl]bicyclo[1.1.1]pentan-1-yl}-4-hydroxy-3,4-dihydro-2H-1-benzopyran-2-carboxamide]	< 10
O=C(NC12CC(n3ncc4cc(Cl)ccc43)(C1)C2)[C@H]1C[C@@H](O)c2cc(Cl)ccc2O1 [Compound 235, (2R,4R)-6-chloro-N-[3-(5-chloro-1H-indazol-1-yl)bicyclo[1.1.1]pentan-1-yl]-4-hydroxy-3,4-dihydro-2H-1-benzopyran-2-carboxamide]	50 to 250
O=C(CO[C@H]1C[C@@H](OC(F)(F)F)C1)NC12CCC(C(=O)NCc3ccc(C(F)(F)F)cn3)(CC1)CC2 [Compound 157]	> 2000
O=C(NC12CC(c3cnn(-c4ccc(C(F)(F)F)nc4)c3)(C1)C2)[C@@H]1C[C@@H](O)c2cc(Cl)ccc2O1 [Compound 263, (2S,4R)-6-chloro-4-hydroxy-N-(3-{1-[6-(trifluoromethyl)pyridin-3-yl]-1H-pyrazol-4-yl}bicyclo[1.1.1]pentan-1-yl)-3,4-dihydro-2H-1-benzopyran-2-carboxamide]	10 to 50
O=C(NC12CC(c3ncc(-c4ccc(Cl)cc4)o3)(C1)C2)[C@@H]1C[C@@H](O)c2cc(Cl)ccc2O1 [Compound 255, (2S,4R)-6-chloro-N-{3-[5-(4-chlorophenyl)-1,3-oxazol-2-yl]bicyclo[1.1.1]pentan-1-yl}-4-hydroxy-3,4-dihydro-2H-1-benzopyran-2-carboxamide]	10 to 50
O=C1C[C@H](C(=O)NC23CC(c4nc(COc5ccc(Cl)c(F)c5)no4)(C2)C3)Oc2ccc(Cl)cc21 [Compound 155, (2R)-6-chloro-N-(3-{3-[(4-chloro-3-fluorophenoxy)methyl]-1,2,4-oxadiazol-5-yl}bicyclo[1.1.1]pentan-1-yl)-4-oxo-3,4-dihydro-2H-1-benzopyran-2-carboxamide]	10 to 50
O=C(NC12CCC(C(=O)NCc3ccc(C(F)(F)F)cn3)(CC1)CC2)[C@H]1C[C@@H](O)c2cc(Cl)ccc2O1 [Compound 107, (2R,4R)-6-chloro-4-hydroxy-N-[4-({[5-(trifluoromethyl)pyridin-2-yl]methyl}carbamoyl)bicyclo[2.2.2]octan-1-yl]-3,4-dihydro-2H-1-benzopyran-2-carboxamide]	< 10
O=C(N[C@H]1CC[C@H](C(=O)NCc2ccc(C(F)(F)F)cn2)CC1)[C@H]1C[C@H](O)c2cc(Cl)ccc2O1 [Compound 198, (2R,4S)-6-chloro-4-hydroxy-N-[trans-4-({[5-(trifluoromethyl)pyridin-2-yl]methyl}carbamoyl)cyclohexyl]-3,4-dihydro-2H-1-benzopyran-2-carboxamide]	250 to 500
